From ChEMBL document CHEMBL3885861, “Open TG-GATES”

Species: Rattus norvegicus
Test: Open TG-GATES - Regimen: Daily Repeat
Type: toxicity, organism-based, Sprague-Dawley
Set-up: regimen Daily Repeat, gender Male, age 6 weeks
Conditions: in vivo, po, 0 mg/kg, route gavage, dose level Control; for APTT / Bas / Eos / Fbg / Hb / Ht / Lym / MCH / MCHC / MCV / Mono / Neu / PT / Plat / RBC / Ret / WBC: tissue Blood; for KIDNEY_L / KIDNEY_R / KIDNEY_TOTAL: tissue Kidney; for LIVER: tissue Liver; for A/G / ALP / ALT / AST / BUN / CRE / Ca / Cl / DBIL / GLC / IP / K / LDH / Na / PL / RALB / TBIL / TC / TG / TP / gamma-GTP: tissue Plasma

Structure (SMILES): CN(C)[C@@H]1C(O)=C(C(N)=O)C(=O)[C@@]2(O)C(O)=C3C(=O)c4c(O)cccc4[C@@](C)(O)[C@H]3C[C@@H]12 [TETRACYCLINE]
- TERMINAL_BW (72 h, time 3 day): 188 g
- APTT (72 h, time 3 day): 16 s
- Bas (72 h, time 3 day): 0%
- Eos (72 h, time 3 day): 0.8%
- Fbg (72 h, time 3 day): 221 mg/dL
- Hb (72 h, time 3 day): 13.6 g/dL
- Ht (72 h, time 3 day): 41.2%
- Lym (72 h, time 3 day): 82.4%
- MCH (72 h, time 3 day): 21.9 pg
- MCHC (72 h, time 3 day): 33.1%
- MCV (72 h, time 3 day): 66 fL
- Mono (72 h, time 3 day): 6.8%
- Neu (72 h, time 3 day): 10%
- PT (72 h, time 3 day): 12.3 s
- Plat (72 h, time 3 day): 96.9 x10_4/uL
- RBC (72 h, time 3 day): 625 x10_4/ul
- Ret (72 h, time 3 day): 8.2%
- WBC (72 h, time 3 day): 111.7 x10_2/uL
- KIDNEY_L (72 h, time 3 day): 0.9 g
- KIDNEY_R (72 h, time 3 day): 0.9 g
- KIDNEY_TOTAL (72 h, time 3 day): 1.7 g
- LIVER (72 h, time 3 day): 9 g
- A/G (72 h, time 3 day): 2.2
- ALP (72 h, time 3 day): 921.6 IU/L
- ALT (72 h, time 3 day): 43.6 IU/L
- AST (72 h, time 3 day): 69 IU/L
- BUN (72 h, time 3 day): 17.6 mg/dL
- CRE (72 h, time 3 day): 0.6 mg/dL
- Ca (72 h, time 3 day): 11.2 mg/dL
- Cl (72 h, time 3 day): 105.4 meq/L
- DBIL (72 h, time 3 day): 0.008 mg/dL
- GLC (72 h, time 3 day): 183 mg/dL
- IP (72 h, time 3 day): 8.2 mg/dL
- K (72 h, time 3 day): 4.7 meq/L
- LDH (72 h, time 3 day): 99.8 IU/L
- Na (72 h, time 3 day): 140.2 meq/L
- PL (72 h, time 3 day): 150.2 mg/dL
- RALB (72 h, time 3 day): 4 g/dL
- TBIL (72 h, time 3 day): 0.3 mg/dL
- TC (72 h, time 3 day): 83.2 mg/dL
- TG (72 h, time 3 day): 80.2 mg/dL
- TP (72 h, time 3 day): 5.8 g/dL
- gamma-GTP (72 h, time 3 day): 1.4 IU/L
- TERMINAL_BW ([…], time 7 day): 228 g
- TERMINAL_BW ([…], time 14 day): 287.8 g
- TERMINAL_BW ([…], time 28 day): 360.5 g
- APTT ([…], time 7 day): 18.8 s
- Bas ([…], time 7 day): 0%
- Eos ([…], time 7 day): 1%
- Fbg ([…], time 7 day): 226.7 mg/dL
- Hb ([…], time 7 day): 13.6 g/dL
- Ht ([…], time 7 day): 40.4%
- Lym ([…], time 7 day): 80.8%
- MCH ([…], time 7 day): 21.6 pg
- MCHC ([…], time 7 day): 33.5%
- MCV ([…], time 7 day): 64.3 fL
- Mono ([…], time 7 day): 6.2%
- Neu ([…], time 7 day): 12%
- PT ([…], time 7 day): 12.1 s
- Plat ([…], time 7 day): 112.5 x10_4/uL
- RBC ([…], time 7 day): 629.6 x10_4/ul
- Ret ([…], time 7 day): 6.6%
- WBC ([…], time 7 day): 142 x10_2/uL
- APTT ([…], time 14 day): 17 s
- Bas ([…], time 14 day): 0%
- Eos ([…], time 14 day): 0.6%
- Fbg ([…], time 14 day): 238.4 mg/dL
- Hb ([…], time 14 day): 13.9 g/dL
- Ht ([…], time 14 day): 41.6%
- Lym ([…], time 14 day): 80.4%
- MCH ([…], time 14 day): 20.9 pg
- MCHC ([…], time 14 day): 33.5%
- MCV ([…], time 14 day): 62.3 fL
- Mono ([…], time 14 day): 5.6%
- Neu ([…], time 14 day): 13.6%
- PT ([…], time 14 day): 11.7 s
- Plat ([…], time 14 day): 109.2 x10_4/uL
- RBC ([…], time 14 day): 668.4 x10_4/ul
- Ret ([…], time 14 day): 5.7%
- WBC ([…], time 14 day): 131 x10_2/uL
- APTT ([…], time 28 day): 17.8 s
- Bas ([…], time 28 day): 0%
- Eos ([…], time 28 day): 1.4%
- Fbg ([…], time 28 day): 235.8 mg/dL
- Hb ([…], time 28 day): 14.8 g/dL
- Ht ([…], time 28 day): 43.9%
- Lym ([…], time 28 day): 83%
- MCH ([…], time 28 day): 19.6 pg
- MCHC ([…], time 28 day): 33.6%
- MCV ([…], time 28 day): 58.3 fL
- Mono ([…], time 28 day): 4.4%
- Neu ([…], time 28 day): 11.6%
- PT ([…], time 28 day): 11.8 s
- Plat ([…], time 28 day): 100.7 x10_4/uL
- RBC ([…], time 28 day): 753.4 x10_4/ul
- Ret ([…], time 28 day): 2.9%
- WBC ([…], time 28 day): 164.6 x10_2/uL
- KIDNEY_L ([…], time 7 day): 1 g
- KIDNEY_R ([…], time 7 day): 1 g
- KIDNEY_TOTAL ([…], time 7 day): 2 g
- KIDNEY_L ([…], time 14 day): 1.2 g
- KIDNEY_R ([…], time 14 day): 1.2 g
- KIDNEY_TOTAL ([…], time 14 day): 2.3 g
- KIDNEY_L ([…], time 28 day): 1.3 g
- KIDNEY_R ([…], time 28 day): 1.3 g
- KIDNEY_TOTAL ([…], time 28 day): 2.7 g
- LIVER ([…], time 7 day): 10.9 g
- LIVER ([…], time 14 day): 13.5 g
- LIVER ([…], time 28 day): 16 g
- A/G ([…], time 7 day): 2.1
- ALP ([…], time 7 day): 1017 IU/L
- ALT ([…], time 7 day): 38.2 IU/L
- AST ([…], time 7 day): 63.2 IU/L
- BUN ([…], time 7 day): 19 mg/dL
- CRE ([…], time 7 day): 0.6 mg/dL
- Ca ([…], time 7 day): 11 mg/dL
- Cl ([…], time 7 day): 106.4 meq/L
- DBIL ([…], time 7 day): 0.006 mg/dL
- GLC ([…], time 7 day): 184.4 mg/dL
- IP ([…], time 7 day): 8.1 mg/dL
- K ([…], time 7 day): 6.3 meq/L
- LDH ([…], time 7 day): 107.6 IU/L
- Na ([…], time 7 day): 139 meq/L
- PL ([…], time 7 day): 157.8 mg/dL
- RALB ([…], time 7 day): 3.9 g/dL
- TBIL ([…], time 7 day): 0.3 mg/dL
- TC ([…], time 7 day): 83.4 mg/dL
- TG ([…], time 7 day): 90.8 mg/dL
- TP ([…], time 7 day): 5.7 g/dL
- gamma-GTP ([…], time 7 day): 1 IU/L
- A/G ([…], time 14 day): 1.8
- ALP ([…], time 14 day): 903 IU/L
- ALT ([…], time 14 day): 30.6 IU/L
- AST ([…], time 14 day): 67.4 IU/L
- BUN ([…], time 14 day): 18.6 mg/dL
- CRE ([…], time 14 day): 0.5 mg/dL
- Ca ([…], time 14 day): 11.1 mg/dL
- Cl ([…], time 14 day): 103.2 meq/L
- DBIL ([…], time 14 day): 0.01 mg/dL
- GLC ([…], time 14 day): 175.2 mg/dL
- IP ([…], time 14 day): 7.9 mg/dL
- K ([…], time 14 day): 4.7 meq/L
- LDH ([…], time 14 day): 100.6 IU/L
- Na ([…], time 14 day): 141 meq/L
- PL ([…], time 14 day): 154.6 mg/dL
- RALB ([…], time 14 day): 4 g/dL
- TBIL ([…], time 14 day): 0.3 mg/dL
- TC ([…], time 14 day): 72.2 mg/dL
- TG ([…], time 14 day): 134.8 mg/dL
- TP ([…], time 14 day): 6.2 g/dL
- gamma-GTP ([…], time 14 day): 1.6 IU/L
- A/G ([…], time 28 day): 1.7
- ALP ([…], time 28 day): 807.8 IU/L
- ALT ([…], time 28 day): 31.2 IU/L
- AST ([…], time 28 day): 58.2 IU/L
- BUN ([…], time 28 day): 20.8 mg/dL
- CRE ([…], time 28 day): 0.6 mg/dL
- Ca ([…], time 28 day): 10.9 mg/dL
- Cl ([…], time 28 day): 106.2 meq/L
- DBIL ([…], time 28 day): 0.016 mg/dL
- GLC ([…], time 28 day): 175.2 mg/dL
- IP ([…], time 28 day): 7.2 mg/dL
- K ([…], time 28 day): 4.6 meq/L
- LDH ([…], time 28 day): 91.4 IU/L
- Na ([…], time 28 day): 140 meq/L
- PL ([…], time 28 day): 164 mg/dL
- RALB ([…], time 28 day): 3.8 g/dL
- TBIL ([…], time 28 day): 0.3 mg/dL
- TC ([…], time 28 day): 78.2 mg/dL
- TG ([…], time 28 day): 154.8 mg/dL
- TP ([…], time 28 day): 6.1 g/dL
- gamma-GTP ([…], time 28 day): 1 IU/L
